Source: ChEMBL document CHEMBL5678816, “A Next-Generation TRK Kinase Inhibitor Overcomes Acquired Resistance to Prior TRK Kinase Inhibition in Patients with TRK Fusion-Positive Solid Tumors” (Cancer Discov, 2017)
Active and inactive are the calls of the source. The calls are words filed in the database; no cut-off is given here.

Columns and labels:
[1] = Inhibition of N-terminal 6His-tagged TRKC G696A mutant (506 to 829 residues) (unknown origin) expressed in Escherichia coli incubated for 60 mins by [gamma-33P]-ATP based TopCount NXT liquid scintillation assay; set-up: species or system Homo sapiens
[2] = Inhibition of human extracellular domain deleted TRKA V573M mutant expressed in mouse NIH3T3 cells assessed as reduction in TRKA phosphorylation incubated for 1 hrs by ELISA; type: cell-based; conditions: NIH3T3, 1 h
[3] = system: NIH3T3; test: Antitumor activity against mouse NIH3T3 cells harboring extracellular domain deleted TRKA G595R mutant implanted in nu/nu NCr mouse assessed as inhibition of tumor growth at 30 to 300 mg/kg, po administered twice daily for 12 days; type: functional, organism-based; conditions: dose 30-300 mg/kg, time 12.0 day
[4] = Toxicity in nu/nu NCr mouse implanted with mouse NIH3T3 cells harboring extracellular domain deleted TRKA G595R mutant assessed as body weight loss at 30 to 300 mg/kg, po administered twice daily for 12 days relative to control; type: organism-based; conditions: in vivo, 288 h, dose 30-300 mg/kg, time 12 day
[5] = system: 5637; test: Inhibition of cell proliferation in human 5637 cells upto 10 umol/L incubated for 72 hrs by DAPI staining based analysis; type: functional; conditions: dose <= 10.0 µmol/L
[6] = system: DBTRG-05MG; test: Inhibition of cell proliferation in human DBTRG-05MG cells upto 10 umol/L incubated for 72 hrs by DAPI staining based analysis; type: functional; conditions: dose <= 10.0 µmol/L
[7] = system: AN3-CA; test: Inhibition of cell proliferation in human AN3-CA cells upto 10 umol/L incubated for 72 hrs by DAPI staining based analysis; type: functional; conditions: dose <= 10.0 µmol/L
[8] = system: CAMA-1; test: Inhibition of cell proliferation in human CAMA-1 cells upto 10 umol/L incubated for 72 hrs by DAPI staining based analysis; type: functional; conditions: dose <= 10.0 µmol/L
[9] = Cmax in adult patient with recurrent LMNA-NTRK1 rearranged colorectal cancer at 50 mg administered twice a day as powder-in-capsule or liquid formulation for 1 day by LC-MS/MS analysis; type: ADME; conditions: human, in vivo, po
[10] = Cmin in adult patient with recurrent LMNA-NTRK1 rearranged colorectal cancer at 50 mg administered twice a day as powder-in-capsule or liquid formulation for 1 day and measured 10 hrs post dose by LC-MS/MS analysis; type: ADME; conditions: human, in vivo, po, read-out: Cmin
[11] = AUC in adult patient with recurrent LMNA-NTRK1 rearranged colorectal cancer at 100 mg administered twice a day as powder-in-capsule or liquid formulation for 15 day by LC-MS/MS analysis; type: ADME; conditions: human, in vivo, po
[12] = target: Tyrosine-protein kinase CSK (Homo sapiens) (UniProt P41240); test: Inhibition of CSK (unknown origin) at 1 uM in presence of ATP relative to control; values are per cent of control
[13] = target: Mitogen-activated protein kinase 1 (Homo sapiens) (UniProt P28482); test: Inhibition of ERK2 (unknown origin) at 1 uM in presence of ATP relative to control; values are per cent of control
[14] = target: Serine/threonine-protein kinase Nek6 (Homo sapiens) (UniProt Q9HC98); test: Inhibition of NEK6 (unknown origin) at 1 uM in presence of ATP relative to control; values are per cent of control
Chain of Serine/threonine-protein kinase Nek6 (Homo sapiens) (Q9HC98 whole entry): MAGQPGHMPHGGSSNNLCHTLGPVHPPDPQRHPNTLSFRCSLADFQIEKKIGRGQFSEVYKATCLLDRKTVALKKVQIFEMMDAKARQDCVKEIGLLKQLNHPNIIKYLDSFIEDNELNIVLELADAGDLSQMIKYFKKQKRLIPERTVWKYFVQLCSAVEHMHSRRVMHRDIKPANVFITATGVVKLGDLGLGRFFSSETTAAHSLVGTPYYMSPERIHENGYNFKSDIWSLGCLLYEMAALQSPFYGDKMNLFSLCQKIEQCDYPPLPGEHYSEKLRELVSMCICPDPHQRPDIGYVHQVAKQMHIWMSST

[15] = target: Serine/threonine-protein kinase PLK3 (Homo sapiens) (UniProt Q9H4B4); test: Inhibition of Plk3 (unknown origin) at 1 uM in presence of ATP relative to control; values are per cent of control
[16] = target: Serine/threonine-protein kinase PAK 2 (Homo sapiens) (UniProt Q13177); test: Inhibition of PAK2 (unknown origin) at 1 uM in presence of ATP relative to control; values are per cent of control
[17] = target: Vascular endothelial growth factor receptor 3 (Homo sapiens) (UniProt P35916); test: Inhibition of FLt4 (unknown origin) at 1 uM in presence of ATP relative to control; values are per cent of control
Chain of Vascular endothelial growth factor receptor 3 (Homo sapiens) (P35916 whole entry): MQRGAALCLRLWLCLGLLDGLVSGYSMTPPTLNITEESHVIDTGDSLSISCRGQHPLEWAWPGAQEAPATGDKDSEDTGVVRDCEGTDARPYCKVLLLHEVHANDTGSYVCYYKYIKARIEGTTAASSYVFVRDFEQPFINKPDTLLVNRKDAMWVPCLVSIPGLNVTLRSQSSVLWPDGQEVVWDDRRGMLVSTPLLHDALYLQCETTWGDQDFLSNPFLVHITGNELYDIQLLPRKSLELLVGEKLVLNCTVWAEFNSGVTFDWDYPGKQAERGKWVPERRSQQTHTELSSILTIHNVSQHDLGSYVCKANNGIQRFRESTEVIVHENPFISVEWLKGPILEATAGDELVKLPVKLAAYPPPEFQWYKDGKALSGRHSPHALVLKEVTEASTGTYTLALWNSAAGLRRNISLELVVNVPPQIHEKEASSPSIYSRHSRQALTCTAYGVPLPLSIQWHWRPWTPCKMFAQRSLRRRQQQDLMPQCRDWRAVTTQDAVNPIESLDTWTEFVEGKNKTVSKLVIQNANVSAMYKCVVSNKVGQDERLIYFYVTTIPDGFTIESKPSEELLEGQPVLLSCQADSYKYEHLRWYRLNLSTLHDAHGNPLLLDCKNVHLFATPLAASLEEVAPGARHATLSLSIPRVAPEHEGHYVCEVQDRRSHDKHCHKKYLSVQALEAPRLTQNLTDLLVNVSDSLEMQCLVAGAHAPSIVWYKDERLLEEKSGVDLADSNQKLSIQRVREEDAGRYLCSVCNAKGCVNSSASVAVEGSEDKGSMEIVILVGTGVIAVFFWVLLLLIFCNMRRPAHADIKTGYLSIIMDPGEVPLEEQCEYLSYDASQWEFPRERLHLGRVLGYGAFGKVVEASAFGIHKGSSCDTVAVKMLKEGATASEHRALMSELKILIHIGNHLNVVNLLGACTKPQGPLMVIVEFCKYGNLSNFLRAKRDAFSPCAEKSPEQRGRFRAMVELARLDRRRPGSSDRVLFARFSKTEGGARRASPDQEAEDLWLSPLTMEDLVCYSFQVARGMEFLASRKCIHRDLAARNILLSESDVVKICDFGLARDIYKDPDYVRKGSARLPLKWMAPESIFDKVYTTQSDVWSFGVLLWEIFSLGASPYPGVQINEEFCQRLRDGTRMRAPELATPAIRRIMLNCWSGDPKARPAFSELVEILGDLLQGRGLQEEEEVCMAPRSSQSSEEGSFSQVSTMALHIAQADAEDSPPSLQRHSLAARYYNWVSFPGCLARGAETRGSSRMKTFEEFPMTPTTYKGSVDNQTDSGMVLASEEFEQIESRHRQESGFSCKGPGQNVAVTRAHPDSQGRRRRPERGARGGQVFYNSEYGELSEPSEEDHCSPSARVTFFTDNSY

[18] = target: BDNF/NT-3 growth factors receptor (Homo sapiens) (UniProt Q16620); test: Inhibition of TrkB (unknown origin) at 1 uM in presence of ATP relative to control; values are per cent of control
[19] = target: Mitogen-activated protein kinase kinase kinase 9 (Homo sapiens) (UniProt P80192); test: Inhibition of MLK1 (unknown origin) at 1 uM in presence of ATP relative to control; values are per cent of control
[20] = target: Calcium/calmodulin-dependent protein kinase type IV (Homo sapiens) (UniProt Q16566); test: Inhibition of CAMK4 (unknown origin) at 1 uM in presence of ATP relative to control; values are per cent of control
Chain of Calcium/calmodulin-dependent protein kinase type IV (Homo sapiens) (Q16566 whole entry): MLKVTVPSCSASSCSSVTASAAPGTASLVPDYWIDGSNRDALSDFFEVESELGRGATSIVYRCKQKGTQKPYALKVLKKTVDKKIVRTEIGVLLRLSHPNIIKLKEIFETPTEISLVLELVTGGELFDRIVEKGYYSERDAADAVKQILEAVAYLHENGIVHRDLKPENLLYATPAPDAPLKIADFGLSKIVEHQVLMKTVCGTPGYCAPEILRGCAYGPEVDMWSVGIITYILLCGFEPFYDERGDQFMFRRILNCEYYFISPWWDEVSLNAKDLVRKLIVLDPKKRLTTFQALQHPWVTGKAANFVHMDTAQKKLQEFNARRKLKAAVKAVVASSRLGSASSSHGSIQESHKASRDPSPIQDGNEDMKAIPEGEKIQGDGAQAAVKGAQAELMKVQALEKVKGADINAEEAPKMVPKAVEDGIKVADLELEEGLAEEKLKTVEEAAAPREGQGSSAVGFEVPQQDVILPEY

[21] = organism: Homo sapiens; test: Inhibition of CK1_y (unknown origin) at 1 uM in presence of ATP relative to control; values are per cent of control
[22] = target: Homeodomain-interacting protein kinase 2 (Homo sapiens) (UniProt Q9H2X6); test: Inhibition of HIPK2 (unknown origin) at 1 uM in presence of ATP relative to control; values are per cent of control
Chain of Homeodomain-interacting protein kinase 2 (Homo sapiens) (Q9H2X6 whole entry, looked up): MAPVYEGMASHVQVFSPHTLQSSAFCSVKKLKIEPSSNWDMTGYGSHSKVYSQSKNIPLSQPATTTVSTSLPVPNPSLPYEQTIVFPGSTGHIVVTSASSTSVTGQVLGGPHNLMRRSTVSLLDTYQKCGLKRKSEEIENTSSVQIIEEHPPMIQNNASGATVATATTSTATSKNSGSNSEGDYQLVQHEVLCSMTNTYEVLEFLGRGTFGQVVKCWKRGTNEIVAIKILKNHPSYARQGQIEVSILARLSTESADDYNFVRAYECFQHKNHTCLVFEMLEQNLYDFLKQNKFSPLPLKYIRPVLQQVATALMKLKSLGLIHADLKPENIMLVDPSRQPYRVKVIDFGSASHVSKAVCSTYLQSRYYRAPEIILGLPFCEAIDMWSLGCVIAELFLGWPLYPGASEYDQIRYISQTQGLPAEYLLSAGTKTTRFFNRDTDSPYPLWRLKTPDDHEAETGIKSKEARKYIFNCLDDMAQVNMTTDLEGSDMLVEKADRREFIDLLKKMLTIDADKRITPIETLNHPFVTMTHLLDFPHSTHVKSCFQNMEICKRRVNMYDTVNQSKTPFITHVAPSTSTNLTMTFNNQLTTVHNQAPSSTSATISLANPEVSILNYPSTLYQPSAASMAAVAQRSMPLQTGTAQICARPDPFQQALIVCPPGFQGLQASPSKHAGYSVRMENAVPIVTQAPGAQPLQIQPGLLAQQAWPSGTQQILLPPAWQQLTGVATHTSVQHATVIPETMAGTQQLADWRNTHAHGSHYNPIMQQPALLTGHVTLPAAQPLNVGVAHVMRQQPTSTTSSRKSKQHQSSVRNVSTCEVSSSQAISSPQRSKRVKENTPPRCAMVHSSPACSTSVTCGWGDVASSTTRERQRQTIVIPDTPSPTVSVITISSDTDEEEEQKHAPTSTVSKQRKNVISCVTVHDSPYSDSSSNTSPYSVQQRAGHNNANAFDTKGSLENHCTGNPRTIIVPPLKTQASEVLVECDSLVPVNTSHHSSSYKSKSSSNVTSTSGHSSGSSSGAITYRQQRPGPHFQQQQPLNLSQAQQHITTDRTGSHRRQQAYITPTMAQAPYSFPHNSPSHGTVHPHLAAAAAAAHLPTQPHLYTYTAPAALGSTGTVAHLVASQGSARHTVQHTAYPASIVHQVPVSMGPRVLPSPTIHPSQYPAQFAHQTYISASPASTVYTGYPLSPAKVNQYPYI

[23] = target: Serine/threonine-protein kinase Nek11 (Homo sapiens) (UniProt Q8NG66); test: Inhibition of NEK11 (unknown origin) at 1 uM in presence of ATP relative to control; values are per cent of control
Chain of Serine/threonine-protein kinase Nek11 (Homo sapiens) (Q8NG66 whole entry): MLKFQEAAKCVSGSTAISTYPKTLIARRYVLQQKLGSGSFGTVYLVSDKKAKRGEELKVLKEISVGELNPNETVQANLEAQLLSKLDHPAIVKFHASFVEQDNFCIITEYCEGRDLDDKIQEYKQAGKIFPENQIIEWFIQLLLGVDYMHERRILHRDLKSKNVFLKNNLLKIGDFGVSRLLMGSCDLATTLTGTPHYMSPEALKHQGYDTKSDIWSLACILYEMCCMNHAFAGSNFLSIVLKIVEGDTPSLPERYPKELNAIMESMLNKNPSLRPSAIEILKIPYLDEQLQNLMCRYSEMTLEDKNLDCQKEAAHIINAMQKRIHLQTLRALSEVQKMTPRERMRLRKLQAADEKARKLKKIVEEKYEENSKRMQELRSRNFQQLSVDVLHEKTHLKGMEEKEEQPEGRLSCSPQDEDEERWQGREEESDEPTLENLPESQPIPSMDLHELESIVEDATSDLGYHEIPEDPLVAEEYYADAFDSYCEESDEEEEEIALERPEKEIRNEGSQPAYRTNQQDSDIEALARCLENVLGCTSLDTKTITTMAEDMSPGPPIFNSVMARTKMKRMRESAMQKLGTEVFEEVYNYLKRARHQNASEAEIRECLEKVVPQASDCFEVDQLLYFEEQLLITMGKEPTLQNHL

[24] = target: Ephrin type-B receptor 4 (Homo sapiens) (UniProt P54760); test: Inhibition of EphB4 (unknown origin) at 1 uM in presence of ATP relative to control; values are per cent of control
[25] = target: Protein kinase C eta type (Homo sapiens) (UniProt P24723); test: Inhibition of PKCeta (unknown origin) at 1 uM in presence of ATP relative to control; values are per cent of control
[26] = organism: Homo sapiens; test: Inhibition of MKK4_m (unknown origin) at 1 uM in presence of ATP relative to control; values are per cent of control
[27] = target: Cyclin-dependent kinase 5/CDK5 activator 1 (Homo sapiens) (UniProt Q00535+Q15078); test: Inhibition of CDK5/p25 (unknown origin) at 1 uM in presence of ATP relative to control; values are per cent of control
Chain of Cyclin-dependent kinase 5/CDK5 activator 1 (Homo sapiens) (Q00535 whole entry): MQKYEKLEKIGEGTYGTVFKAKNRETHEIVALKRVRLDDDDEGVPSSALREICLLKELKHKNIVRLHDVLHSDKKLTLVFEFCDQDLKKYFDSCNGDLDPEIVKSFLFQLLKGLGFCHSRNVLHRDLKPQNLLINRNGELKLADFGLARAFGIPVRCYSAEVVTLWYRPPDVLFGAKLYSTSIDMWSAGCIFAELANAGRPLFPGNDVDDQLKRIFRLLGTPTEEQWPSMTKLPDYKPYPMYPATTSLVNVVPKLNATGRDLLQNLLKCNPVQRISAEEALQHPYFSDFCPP
Chain of Cyclin-dependent kinase 5/CDK5 activator 1 (Homo sapiens) (Q15078 99-307 partner limits assumed): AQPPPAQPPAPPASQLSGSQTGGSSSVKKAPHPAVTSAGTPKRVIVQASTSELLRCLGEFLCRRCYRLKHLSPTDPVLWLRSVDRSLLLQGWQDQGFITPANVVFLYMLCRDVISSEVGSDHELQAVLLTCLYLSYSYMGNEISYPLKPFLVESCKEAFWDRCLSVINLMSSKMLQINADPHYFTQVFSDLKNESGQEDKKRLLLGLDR

[28] = target: Mitogen-activated protein kinase 12 (Homo sapiens) (UniProt P53778); test: Inhibition of p38gamma (unknown origin) at 1 uM in presence of ATP relative to control; values are per cent of control
Chain of Mitogen-activated protein kinase 12 (Homo sapiens) (P53778 whole entry): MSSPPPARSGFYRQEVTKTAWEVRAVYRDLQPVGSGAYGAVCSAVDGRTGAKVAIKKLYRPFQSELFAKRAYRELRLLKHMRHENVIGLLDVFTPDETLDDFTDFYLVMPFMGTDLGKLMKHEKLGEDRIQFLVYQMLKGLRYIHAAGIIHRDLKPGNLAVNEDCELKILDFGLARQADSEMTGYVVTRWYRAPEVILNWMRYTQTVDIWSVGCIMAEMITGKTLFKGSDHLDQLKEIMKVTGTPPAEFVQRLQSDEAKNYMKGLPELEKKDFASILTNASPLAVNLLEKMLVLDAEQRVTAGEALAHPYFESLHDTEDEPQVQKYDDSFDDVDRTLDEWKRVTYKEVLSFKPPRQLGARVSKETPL

IC50 [1]: < 2.5 nM
IC50 [2]: 29 nM
Cmax [9]: 350 ng/mL
concentration at 34 h [10]: 1.86 ng/mL
AUC at 360 h [11]: 2620 ng·h/mL
residual activity [12]: 112%
residual activity [13]: 105%
residual activity [14]: 116%
residual activity [15]: 93.5%
residual activity [16]: 108%
residual activity [17]: 90%
residual activity [18]: 0%
residual activity [19]: 96.5%
residual activity [20]: 118%
residual activity [21]: 114%
residual activity [22]: 113%
residual activity [23]: 112%
residual activity [24]: 116%
residual activity [25]: 108%
residual activity [26]: 108%
residual activity [27]: 98.5%
residual activity [28]: 104%
Compound: C[C@@H]1CCc2ncc(F)cc2[C@H]2CCCN2c2ccn3ncc(c3n2)C(=O)N1 [SELITRECTINIB]
Activity [3]: Active
Activity [4]: < 5%
inhibition [5]: inactive
inhibition [6]: inactive
inhibition [7]: inactive
inhibition [8]: inactive
